SMILES strings stand for the structures.

Results on 19 molecules are retold here after Sander's compilation of Henry's law constants (doi:10.1016/j.atmosenv.2016.10.009).

The series can be described thus: Henry solubility constant Hcp at 298.15 K (mol/(m3 Pa)). The following applies: reference: Odabasi and Adali (2016).
Regarding `Clc1cc2c(Cl)c(Cl)c(Cl)c(Cl)c2c(Cl)c1Cl` [1,2,3,4,5,6,7-heptachloronaphthalene], the “Henry solubility constant Hcp” value worked out at 3.6. Regarding `Clc1cc(Cl)c2c(Cl)c(Cl)c(Cl)c(Cl)c2c1Cl` [1,2,3,4,5,6,8-heptachloronaphthalene], the “Henry solubility constant Hcp” value is 2.4. With `Clc1ccc2c(Cl)c(Cl)c(Cl)c(Cl)c2c1Cl` [1,2,3,4,5,6-hexachloronaphthalene], the “Henry solubility constant Hcp” value came to 0.78. Turning to `Clc1c(Cl)c(Cl)c2c(Cl)ccc(Cl)c2c1Cl` [1,2,3,4,5,8-hexachloronaphthalene], the “Henry solubility constant Hcp” value turned out to be 0.93. For the molecule `Clc1ccc2c(Cl)c(Cl)c(Cl)c(Cl)c2c1` [1,2,3,4,6-pentachloronaphthalene], the “Henry solubility constant Hcp” value was 0.078.

In the case of `Clc1cc2c(Cl)cc(Cl)c(Cl)c2c(Cl)c1Cl` [1,2,3,5,7,8-hexachloronaphthalene], the “Henry solubility constant Hcp” value stood at 0.43. For the molecule `Clc1cc2c(Cl)ccc(Cl)c2c(Cl)c1Cl` [1,2,3,5,8-pentachloronaphthalene], the “Henry solubility constant Hcp” value turned out to be 0.17.

Turning to `Clc1cc(Cl)c2c(Cl)c(Cl)ccc2c1Cl` [1,2,4,5,6-pentachloronaphthalene], the “Henry solubility constant Hcp” value was 0.14. Turning to `Clc1cc(Cl)c2c(Cl)cc(Cl)c(Cl)c2c1` [1,2,4,5,7-pentachloronaphthalene], the “Henry solubility constant Hcp” value is 0.089. For the molecule `Clc1cc(Cl)c2c(Cl)ccc(Cl)c2c1Cl` [1,2,4,5,8-pentachloronaphthalene], the “Henry solubility constant Hcp” value is 0.26. For `Clc1cc(Cl)c2c(Cl)cccc2c1Cl` [1,2,4,5-tetrachloronaphthalene] the value was 0.15; for `Clc1cc(Cl)c2c(Cl)c(Cl)cc(Cl)c2c1` [1,2,4,6,8-pentachloronaphthalene], 0.1. `Clc1ccc2c(Cl)cc(Cl)c(Cl)c2c1Cl` [1,2,4,7,8-pentachloronaphthalene]: the “Henry solubility constant Hcp” value is 0.17.

`Clc1ccc2c(Cl)cccc2c1Cl` [1,2,5-trichloronaphthalene]: the “Henry solubility constant Hcp” value turned out to be 0.11. For `Clc1ccc2c(Cl)c(Cl)ccc2c1` [1,2,6-trichloronaphthalene] the value was 0.17; for `Clc1cc(Cl)c2cccc(Cl)c2c1` [1,3,5-trichloronaphthalene], 0.071; for `Clc1ccc(Cl)c2c(Cl)ccc(Cl)c12` [1,4,5,8-tetrachloronaphthalene], 0.35.

Consider `Clc1ccc(Cl)c2c(Cl)cccc12` [1,4,5-trichloronaphthalene], for which the “Henry solubility constant Hcp” value was 0.22. Regarding `Clc1c(Cl)c(Cl)c2c(Cl)c(Cl)c(Cl)c(Cl)c2c1Cl` [octachloronaphthalene], the “Henry solubility constant Hcp” value was found to be 1.2.
